Assay results from patent publication US20250304623A1, “PEPTIDES FOR INTRACELLULAR DELIVERY” (UNIVERSIDADE DE SANTIAGO DE COMPOSTELA, priority 2022, published 2025).
Starred links: 1 amine or outer side, 2 acyl side, 3 side chain; linkers in the order of their positions; H or OH if unused. Residues, ends and D or L forms follow the SMILES beside them. Groups on a side chain read outwards from the residue. *: point of attachment. Glutaryl = O=C(CCCC(=O)[*:2])[*:1]; NHNH2 = NN*

Experiments:
HCT116 cells = test: EGFP mRNA delivery, robotic library screening, HCT116; type: cell-based
Method: Cells were seeded in a 96 well plate the day before the experiment at a concentration of 50,000 cell/mL (100 μL/w) in DMEM+10% FBS+1% Gln-Abt. For robotic library screening, the delivery of EGFP-mRNA (from TriLink, fully substituted with 5-methoxyuridine, capped and polyadenylated; TriLink, CleanCap® EGFP mRNA (5moU), ref. L-7201) in six different cell lines was performed. Amphiphilic molecule stock solutions were prepared in DMSO as described above and diluted in DMEM to afford a range of concentrations. The solutions of EGFP-mRNA/amphiphilic molecule complexes were freshly prepared prior to the transfection experiments. 35 μL of the corresponding amphiphile were added to 10 μL of a solution of EGFP-mRNA at 10 ng/μL in DMEM. The mixture was shaken for 30 min at room temperature before the addition to the cells. The cell medium was aspirated, and cells were washed with PBS twice. Cells were covered with 39 μL of DMEM and 11 μL of the complex's solution were added to the cells and incubated for 4 h (final concentration of peptide=2.5, 5 and 10 μM; final concentration of EGFP-mRNA=25 ng/well). After the incubation, the medium was replaced by 100 μL of fresh DMEM supplemented with 10% FBS. The total EGFP fluorescence was quantified after 72 h in a well plate reader. Amphiphile transfection efficiency was compared and normalized to Lipofectamine® MessengerMax efficiency (value of 1 in Tables 1-5 and 7; double underlined numbers). All experiments were done in triplicate.
Tables 1-7: RLuc (pDNA) or EGFP (mRNA) expression levels were normalized to Lipofectamine reagents (value=1) and expressed as fold-times signal increase. In the case of siRNA, the siRNA treated cells fluorescence was compared with siMOCK control fluorescence, while Cas9-RNP mediated knockout was measured against the fluorescence of untreated cells. In both siRNA and Cas9-RNP, values are expressed as % fluorescence reduction. Amphiphile concentration was 5 μM in all cases. All experiments were performed in triplicate.
Tables 14-19 show the mean (triplicates) fluorescence intensity measured after the transfection of EGFP mRNA by different amphiphiles at different concentrations in a variety of cell lines. Background fluorescence values, accounted by untreated control cells, were subtracted for processing.

[1] = system: HepG2 cells expressing EGFP; test: Cas9-RNP delivery against EGFP (gene editing, plate reader), HepG2; type: cell-based
Method: To generate an EGFP expressing HeLa cell line, HeLa cells were transfected with EGFP pDNA (pEGFP-C1, Clontech) and stable transfectants were selected with 400 μg/mL of G-418 (Millipore). Green clones were selected by epifluorescence microscopy and tested for EGFP expression stability through several passages. […] All other EGFP-expressing cell lines were obtained in a similar way from parent non-EGFP-expressing cell lines.
Cells expressing EGFP were seeded in a 96 well plate the day before the experiment at a concentration of 50,000 cell/mL (100 μL/w) in DMEM+10% FBS+1% Gln-Abt. For robotic library screening, the delivery of Cas9-RNP against EGFP (RNP designed to knock-out the gene encoding for the enhanced green fluorescent protein (EGFP)) was performed. For RNP assembly, 9.2 μL of crRNA and 9.2 μL of tracrRNA were mixed in 211.6 μL of Nuclease-Free Duplex Buffer (IDT), incubated for 5 min at 95° C. and slowly cooled at rt (see I. Lostalé-Seijo, et al. Peptide/Cas9 nanostructures for ribonucleoprotein cell membrane transport and gene edition, Chem. Sci., 2017). Cas9 protein was dissolved in DMEM at a final concentration of 4 μM and equal volumes of the RNA complex and Cas9 were mixed and incubated for 5 min at rt. 75 μL of the corresponding amphiphile concentrations were added to 5 μL of RNP at 2 μM. The mixture was shaken for 30 min at room temperature before the addition to the cells. The cell medium was aspirated, and cells were washed twice with PBS. Cells were covered with 30 μL of DMEM and 20 μL of the RNP/amphiphile complexes were added to the cells (final peptide concentrations=2.5, 5 and 10 μM; final Cas9-RNP concentration=50 nM) and incubated for 4 h. After the incubation, the medium was replaced by 100 μL of fresh DMEM supplemented with 10% FBS. The total EGFP fluorescence was quantified after 72 h in a plate reader (FIG. 2, Table 1 (right) and Table 6). All experiments were done in triplicate. […]
Tables 26-31 show the mean (triplicates) percentage of gene editing, accounted by GFP fluorescence intensity decrease (% of reduction), measured after the transfection of Cas9-RNP by different amphiphiles at different concentrations in a variety of cell lines. Background values, accounted by untreated control cells, were subtracted for processing.

Compound | mean fluorescence intensity (EGFP mRNA) (HCT116 cells; Myristoleyl, 2.5 μM) | mean fluorescence intensity (EGFP mRNA) (HCT116 cells; Myristoleyl, 5 μM) | mean fluorescence intensity (EGFP mRNA) (HCT116 cells; Palmitoleyl, 2.5 μM) | mean fluorescence intensity (EGFP mRNA) (HCT116 cells; Petroselinyl, 2.5 μM) | mean fluorescence intensity (EGFP mRNA) (HCT116 cells; Petroselinyl, 5 μM) | mean fluorescence intensity (EGFP mRNA) (HCT116 cells; Petroselinyl, 10 μM) | percentage of gene editing, GFP fluorescence intensity decrease (% of reduction) ([1]; Dodecanal, 10 μM) [%] | percentage of gene editing, GFP fluorescence intensity decrease (% of reduction) ([1]; Dodecanal, 15 μM) [%] | percentage of gene editing, GFP fluorescence intensity decrease (% of reduction) ([1]; Myristoleyl, 5 μM) [%] | percentage of gene editing, GFP fluorescence intensity decrease (% of reduction) ([1]; Myristoleyl, 10 μM) [%] | percentage of gene editing, GFP fluorescence intensity decrease (% of reduction) ([1]; Oleyl, 10 μM) [%] | percentage of gene editing, GFP fluorescence intensity decrease (% of reduction) ([1]; Oleyl, 15 μM) [%] | percentage of gene editing, GFP fluorescence intensity decrease (% of reduction) ([1]; Palmitoleyl, 5 μM) [%] | percentage of gene editing, GFP fluorescence intensity decrease (% of reduction) ([1]; Palmitoleyl, 10 μM) [%] | percentage of gene editing, GFP fluorescence intensity decrease (% of reduction) ([1]; Palmitoleyl, 15 μM) [%] | percentage of gene editing, GFP fluorescence intensity decrease (% of reduction) ([1]; Dodecanal, 5 μM) [%] | percentage of gene editing, GFP fluorescence intensity decrease (% of reduction) ([1]; Petroselinyl, 5 μM) [%] | other results
CC(=O)N[C@@H](CCCNC(=N)N)C(=O)N[C@@H](CCCCNC(=O)CCCC(=O)NN)C(=O)N[C@@H](Cc1c[nH]cn1)C(=O)N[C@@H](CCCNC(=N)N)C(=O)N[C@@H](CCCCNC(=O)CCCC(=O)NN)C(=O)N[C@@H](CCCCNC(=O)CCCC(=O)NN)C(=O)N[C@@H](Cc1c[nH]cn1)C(N)=O [7.3(L-H), Ac-RK*HRK*K*H-NH2] (Ac-RK([Glutaryl-NHNH2])HRK([Glutaryl-NHNH2])K([Glutaryl-NHNH2])H-NH2) | 76926 | 19128 | 32455 | 5653 | 19656 | 9118 | −28 | −28 | −16 | −25 | −13 | −12 | −23 | −12 | −25 |  |  | mean fluorescence intensity (EGFP mRNA) (HCT116 cells; Palmitoleyl, 5 μM): 26406; mean fluorescence intensity (EGFP mRNA) (HCT116 cells; Palmitoleyl, 10 μM): 6504; percentage of gene editing, GFP fluorescence intensity decrease (% of reduction) ([1]; Myristoleyl, 15 μM): −19%; percentage of gene editing, GFP fluorescence intensity decrease (% of reduction) ([1]; Oleyl, 5 μM): −17%; percentage of gene editing, GFP fluorescence intensity decrease (% of reduction) ([1]; Petroselinyl, 10 μM): −20%
Ac-RHLK*RHK*RRLK*RH-NH2 (Ac-RHLKRHKRRLKRH-NH2; not fully specified (residues 4, 7, 11); printed as Ac-RHLK*RHK*RRLK*RH-NH2; also: linker on K* not given here) [13(3His)] |  |  |  | 563 | 238 | 541 | −34 |  |  | −1 |  |  | −28 | −24 | −15 | −33 | −16 | 
Ac-RHLK*RLK*RRLK*RL-NH2 (Ac-RHLKRLKRRLKRL-NH2; not fully specified (residues 4, 7, 11); printed as Ac-RHLK*RLK*RRLK*RL-NH2; also: linker on K* not given here) [13(Arg-His)] | 2974 | 4154 | 4249 | 1065 | 490 | 61 | −10 | 14 | 10 | 33 | −4 | 15 | −8 | 26 | 7 | −31 | −27 | mean fluorescence intensity (EGFP mRNA) (HCT116 cells; Myristoleyl, 10 μM): 4744
